# Source: patent publication US8048825B2, “Haloalkylsulfonanilide derivatives or salt thereof, herbicide comprising the derivatives as active ingredient, and use of the herbicide” (Nihon Nohyaku Co., Ltd., priority 2006, dated 2011)
# Legend:
# Assay type in all cases: in vivo
# Lindernia procumbens [1] = experiment: Herbicidal efficacy on paddy field weeds of pre-emergence stage (Pre), Test Example 1; details: 1000 g/ha as active ingredient, examined after 21 days
# Procedure: (§1) 75 cm^2 plastic pots were filled with the soil (clay loam). Seeds of Scirpus juncoides, a paddy weed, were planted, and they were covered with 75 cm^3 of soil mixed with seeds of Lindernia procumbens and then filled with water depth of 5 cm. Next day, predetermined effective dosage (1000 g/ha as an active ingredient) of formulations comprising a compound of the present invention as an active ingredient which were prepared following Formulation Examples 1 to 4 was diluted with water and applied dropwise to the surface of the water. Then, they were brought up in a greenhouse and the herbicidal effect was examined after 21 days from the treatment by comparing with the result of an untreated group according to the following criteria. In the table, “-” means that the test was not performed.
# (§2) Criteria for herbicidal efficacy (growth inhibiting degree) and phytotoxicity. • 5 . . . 100% herbicidal effect, phytotoxicity. • 4 . . . 90%-99% herbicidal effect, phytotoxicity. • 3 . . . 70%-89% herbicidal effect, phytotoxicity. • 2 . . . 40%-69% herbicidal effect, phytotoxicity. • 1 . . . 1%-39% herbicidal effect, phytotoxicity. • 0 . . . 0% herbicidal effect, phytotoxicity.
# Scirpus juncoides [2] = experiment: as above; details: 1000 g/ha as active ingredient, examined after 21 days
# Procedure: as §1, §2
# Lindernia procumbens [3] = experiment: Herbicidal effect on paddy field weeds of post-emergence stage (Post), Test Example 2; details: one-leaf stage, 1000 g/ha as active ingredient, examined after 21 days
# From the text: as §2
# (§3) 75 cm^2 plastic pots were filled with the soil (clay loam). Seeds of Scirpus juncoides and Echinochloa crus-galli, paddy weeds, were planted, and they were covered with 75 cm^3 of soil mixed with seeds of Lindernia procumbens and then filled with water depth of 5 cm and they were brought up in a greenhouse. When the test plants were at one-leaf stage, predetermined effective dosage (1000 g/ha as an active ingredient) of formulations comprising a compound of the present invention as an active ingredient was applied to the pot water. Then, they were brought up in a greenhouse and the herbicidal efficacy was examined after 21 days from the treatment by comparing with the result of an untreated group according to the criteria of Test Example 1. In the table, “-” means that the test was not performed.
# Scirpus juncoides [4] = experiment: as above; details: one-leaf stage, 1000 g/ha as active ingredient, examined after 21 days
# From the text: as §2, §3
SMILES,Lindernia procumbens pre (herbicidal effect) (Lindernia procumbens [1]),Scirpus juncoides pre (herbicidal effect) (Scirpus juncoides [2]),Lindernia procumbens post (herbicidal effect) (Lindernia procumbens [3]),Scirpus juncoides post (herbicidal effect) (Scirpus juncoides [4])
O=C1OC(c2ccc(Cl)cc2)(C2CC2)CCN1Cc1ccccc1NS(=O)(=O)C(F)(F)F (stereo not drawn) [Compound 1-195],"4 (90%-99% herbicidal effect, phytotoxicity)","4 (90%-99% herbicidal effect, phytotoxicity)","4 (90%-99% herbicidal effect, phytotoxicity)","4 (90%-99% herbicidal effect, phytotoxicity)"
CCOC(=O)N(c1ccccc1CN1CCC(c2ccc(Cl)cc2)(C2CC2)OC1=O)S(=O)(=O)C(F)(F)F (stereo not drawn) [Compound 1-197],"4 (90%-99% herbicidal effect, phytotoxicity)","4 (90%-99% herbicidal effect, phytotoxicity)","4 (90%-99% herbicidal effect, phytotoxicity)","4 (90%-99% herbicidal effect, phytotoxicity)"
O=C1OC(c2ccccc2)(C2CCC2)CCN1Cc1ccccc1NS(=O)(=O)C(F)(F)F (stereo not drawn) [Compound 1-206],"4 (90%-99% herbicidal effect, phytotoxicity)","4 (90%-99% herbicidal effect, phytotoxicity)","4 (90%-99% herbicidal effect, phytotoxicity)","4 (90%-99% herbicidal effect, phytotoxicity)"
O=C1OC(c2ccccc2)(c2ccccc2)CCN1Cc1ccccc1NS(=O)(=O)C(F)(F)F [Compound 1-217],"4 (90%-99% herbicidal effect, phytotoxicity)","4 (90%-99% herbicidal effect, phytotoxicity)","4 (90%-99% herbicidal effect, phytotoxicity)","4 (90%-99% herbicidal effect, phytotoxicity)"
CCOC(=O)N(c1ccccc1CN1CCC(c2ccccc2)(c2ccccc2)OC1=O)S(=O)(=O)C(F)(F)F [Compound 1-219],"4 (90%-99% herbicidal effect, phytotoxicity)","4 (90%-99% herbicidal effect, phytotoxicity)","4 (90%-99% herbicidal effect, phytotoxicity)","4 (90%-99% herbicidal effect, phytotoxicity)"
O=C1OC(c2ccccc2)(C(F)(F)F)CCN1Cc1ccccc1NS(=O)(=O)C(F)(F)F (stereo not drawn) [Compound 1-228],"5 (100% herbicidal effect, phytotoxicity)","5 (100% herbicidal effect, phytotoxicity)","5 (100% herbicidal effect, phytotoxicity)","4 (90%-99% herbicidal effect, phytotoxicity)"
O=C1OC(c2ccccc2F)CCN1Cc1ccccc1NS(=O)(=O)C(F)(F)F (stereo not drawn) [Compound 1-250],"5 (100% herbicidal effect, phytotoxicity)","5 (100% herbicidal effect, phytotoxicity)","5 (100% herbicidal effect, phytotoxicity)","5 (100% herbicidal effect, phytotoxicity)"
CCOC(=O)N(c1ccccc1CN1CCC(c2ccccc2F)OC1=O)S(=O)(=O)C(F)(F)F (stereo not drawn) [Compound 1-252],"5 (100% herbicidal effect, phytotoxicity)","4 (90%-99% herbicidal effect, phytotoxicity)","5 (100% herbicidal effect, phytotoxicity)","4 (90%-99% herbicidal effect, phytotoxicity)"
CN(c1ccccc1CN1CC(C)(C)C(c2ccccc2)OC1=O)S(=O)(=O)C(F)(F)F (stereo not drawn) [Compound 1-268],"5 (100% herbicidal effect, phytotoxicity)","4 (90%-99% herbicidal effect, phytotoxicity)","5 (100% herbicidal effect, phytotoxicity)","4 (90%-99% herbicidal effect, phytotoxicity)"
O=C1OC(c2ccccc2C(F)(F)F)CCN1Cc1ccccc1NS(=O)(=O)C(F)(F)F (stereo not drawn) [Compound 1-294],"5 (100% herbicidal effect, phytotoxicity)","4 (90%-99% herbicidal effect, phytotoxicity)","5 (100% herbicidal effect, phytotoxicity)","4 (90%-99% herbicidal effect, phytotoxicity)"
O=C1OC(c2ccccc2Cl)CCN1Cc1ccccc1NS(=O)(=O)C(F)(F)F (stereo not drawn) [Compound 1-305],"5 (100% herbicidal effect, phytotoxicity)","4 (90%-99% herbicidal effect, phytotoxicity)","5 (100% herbicidal effect, phytotoxicity)","4 (90%-99% herbicidal effect, phytotoxicity)"
CCOC(=O)N(c1ccccc1CN1CCC(c2ccccc2Cl)OC1=O)S(=O)(=O)C(F)(F)F (stereo not drawn) [Compound 1-307],"5 (100% herbicidal effect, phytotoxicity)","4 (90%-99% herbicidal effect, phytotoxicity)","5 (100% herbicidal effect, phytotoxicity)","4 (90%-99% herbicidal effect, phytotoxicity)"
O=C1OC(C(F)(F)F)(C(F)(F)F)CCN1Cc1ccccc1NS(=O)(=O)C(F)(F)F [Compound 1-338],"4 (90%-99% herbicidal effect, phytotoxicity)","4 (90%-99% herbicidal effect, phytotoxicity)","5 (100% herbicidal effect, phytotoxicity)","4 (90%-99% herbicidal effect, phytotoxicity)"
COC(=O)N(c1ccccc1CN1CCC(c2c(F)cccc2F)OC1=O)S(=O)(=O)C(F)(F)F (stereo not drawn) [Compound 1-350],"5 (100% herbicidal effect, phytotoxicity)","5 (100% herbicidal effect, phytotoxicity)","5 (100% herbicidal effect, phytotoxicity)","4 (90%-99% herbicidal effect, phytotoxicity)"
CCOC(=O)N(c1ccccc1CN1CCC(c2c(F)cccc2F)OC1=O)S(=O)(=O)C(F)(F)F (stereo not drawn) [Compound 1-351],"5 (100% herbicidal effect, phytotoxicity)","4 (90%-99% herbicidal effect, phytotoxicity)","5 (100% herbicidal effect, phytotoxicity)","4 (90%-99% herbicidal effect, phytotoxicity)"
Cc1cccc(C)c1C1CCN(Cc2ccccc2NS(=O)(=O)C(F)(F)F)C(=O)O1 (stereo not drawn) [Compound 1-360],"5 (100% herbicidal effect, phytotoxicity)","5 (100% herbicidal effect, phytotoxicity)","5 (100% herbicidal effect, phytotoxicity)","4 (90%-99% herbicidal effect, phytotoxicity)"
CC(C)(C)COC(=O)N(c1ccccc1CN1CCC(C)(C2(C)CC2)OC1=O)S(=O)(=O)C(F)(F)F (stereo not drawn) [Compound 1-377],"5 (100% herbicidal effect, phytotoxicity)","4 (90%-99% herbicidal effect, phytotoxicity)","5 (100% herbicidal effect, phytotoxicity)","4 (90%-99% herbicidal effect, phytotoxicity)"
CC1(c2ccccc2C(F)(F)F)CCN(Cc2ccccc2NS(=O)(=O)C(F)(F)F)C(=O)O1 (stereo not drawn) [Compound 1-393],"5 (100% herbicidal effect, phytotoxicity)","5 (100% herbicidal effect, phytotoxicity)","5 (100% herbicidal effect, phytotoxicity)","4 (90%-99% herbicidal effect, phytotoxicity)"
